Read-outs that look alike come from different tables or passages of the source.
Assay: Tissue distribution following oral administration of reference compounds and the disclosed compounds
Assay type: in vivo, rats
Conditions: rat
Method: The liver specificity of the disclosed compounds is compared relative to a corresponding active compound in liver and other organs that could be targets of toxicity.
Reference compounds and the cyclic deoxyribonucleotide, acetal, and hemiaminal compounds are administered at 5-50 mg/kg to fasted rats by oral gavage. Plasma concentrations of the metabolites, and parent compounds in circulation and in the hepatic portal vein are determined by HPLC-UV, and the liver, small intestine, and other organ concentrations are measured by LC-MS using the standard chromatography method.

[1] = drug level in the blood 1 hour after oral administration at 5 mg/kg dose in rats (Table 1), read-out: Drugblood
[2] = drug level in the liver 1 hour after oral administration at 5 mg/kg dose in rats (Table 1), read-out: Drugliver
[3] = prodrug level in the blood 1 hour after oral administration at 5 mg/kg dose in rats (Table 2), read-out: Drugblood
[4] = prodrug level in the liver 1 hour after oral administration at 5 mg/kg dose in rats (Table 2), read-out: Drugliver

| Compound | concentration at 1 h [1] [ng/mL] | concentration at 1 h [2] [ng/g] | concentration at 1 h [3] [ng/mL] | concentration at 1 h [4] [ng/g] |
| --- | --- | --- | --- | --- |
| C[C@H]1O[C@@H](n2cc(F)c(=O)[nH]c2=O)[C@@H]2OC(c3ccc(O)cc3)O[C@@H]21 (stereo partly drawn) [Compound 116, 5-Fluoro-1-((3aR,4R,6R,6aR)-2-(4-hydroxyphenyl)-6-methyltetrahydrofuro[3,4-d][1,3]dioxol-4-yl)pyrimidine-2,4(1H,3H)-dione] | 1350 | 978 | – | – |
| O=c1[nH]c(=O)n([C@H]2C[C@@H]3OP(=O)(OCCCC4CCCC4)OC[C@H]3O2)cc1F (stereo partly drawn) [Compound 207, 5-Fluoro-1-((4aR,6R,7aS)-2-(3-cyclopentylpropyloxy)-2-oxidotetrahydro-4H-furo[3,2-d][1,3,2]dioxaphosphinin-6-yl)pyrimidine-2,4(1H,3H)-dione] | – | – | 29.4 | 429 |
| O=c1[nH]c(=O)n([C@H]2C[C@@H]3OP(=O)(OCc4ccccc4F)OC[C@H]3O2)cc1F (stereo partly drawn) [Compound 139, 1-((4aR,6R,7aS)-2-(2-Fluorobenzyloxy)-2-oxidotetrahydro-4H-furo[3,2-d][1,3,2]dioxaphosphinin-6-yl)-5-fluoropyrimidine-2,4(1H,3H)-dione] | 11.3 | < 6 | – | – |
| O=c1[nH]c(=O)n([C@H]2C[C@@H]3OP(=O)(Oc4ccccc4)OC[C@H]3O2)cc1F (stereo partly drawn) [Compound 122, 5-Fluoro-1-((4aR,6R,7aS)-2-oxido-2-phenoxytetrahydro-4H-furo[3,2-d][1,3,2]dioxaphosphinin-6-yl)pyrimidine-2,4(1H,3H)-dione] | 301 | 1980 | – | – |
| O=c1[nH]c(=O)n([C@H]2C[C@@H]3OP(=O)(OCc4ccc(Cl)cc4)OC[C@H]3O2)cc1F (single isomer, unassigned) [Compound 127] | 7.81 | < 6 | – | – |
| CCCCCOC(=O)Nc1nc(=O)n([C@@H]2O[C@H](C)[C@@H](O)[C@H]2O)cc1F [Capecitabine, reference compound] | – | – | 88.4 | 44.7 |
| CCCCCCCOP1(=O)OC[C@H]2O[C@@H](n3cc(F)c(=O)[nH]c3=O)C[C@@H]2O1 (stereo partly drawn) [Compound 201, 5-Fluoro-1-((4aR,6R,7aS)-2-(heptyloxy)-2-oxidotetrahydro-4H-furo[3,2-d][1,3,2]dioxaphosphinin-6-yl)pyrimidine-2,4(1H,3H)-dione] | – | – | 109 | 1040 |
| O=c1[nH]c(=O)n([C@H]2C[C@@H]3OP(=O)(OCC4(c5ccccc5)CC4)OC[C@H]3O2)cc1F (stereo partly drawn) [Compound 217, 5-Fluoro-1-((4aR,6R,7aS)-2-oxido-2-((1-phenylcyclopropyl)methoxy)tetrahydro-4H-furo[3,2-d][1,3,2]dioxaphosphinin-6-yl)pyrimidine-2,4(1H,3H)-dione] | – | – | 21.7 | 255 |
| CCOCOC1[C@@H](O)[C@H](n2cc(F)c(=O)n(COCC)c2=O)O[C@@H]1C (stereo in doubt) [Compound 109, 1-((2R,3R,4R,5R)-4-(Ethoxymethoxy)-3-hydroxy-5-methyltetrahydrofuran-2-yl)-3-(ethoxymethyl)-5-fluoropyrimidine-2,4(1H,3H)-dione] | 83.9 | 373 | – | – |
| CCCCCCCCOP1(=O)OC[C@H]2O[C@@H](n3cc(F)c(=O)[nH]c3=O)C[C@@H]2O1 (stereo partly drawn) [Compound 202, 5-Fluoro-1-((4aR,6R,7aS)-2-(octyloxy)-2-oxidotetrahydro-4H-furo[3,2-d][1,3,2]dioxaphosphinin-6-yl)pyrimidine-2,4(1H,3H)-dione] | – | – | 158 | 2560 |
| CCc1ccc(COP2(=O)OC[C@H]3O[C@@H](n4cc(F)c(=O)[nH]c4=O)C[C@@H]3O2)cc1 (stereo partly drawn) [Compound 147, 1-((4aR,6R,7aS)-2-(4-Ethylbenzyloxy)-2-oxidotetrahydro-4H-furo[3,2-d][1,3,2]dioxaphosphinin-6-yl)-5-fluoropyrimidine-2,4(1H,3H)-dione] | < 1 | < 6 | – | – |
| O=c1[nH]c(=O)n([C@H]2C[C@@H]3OP(=O)(OCc4ccc(F)cc4C4OCCO4)OC[C@H]3O2)cc1F (stereo partly drawn) [Compound 219, 1-((4aR,6R,7aS)-2-((2-(1,3-Dioxolan-2-yl)-4-fluorobenzyl)oxy)-2-oxidotetrahydro-4H-furo[3,2-d][1,3,2]dioxaphosphinin-6-yl)-5-fluoropyrimidine-2,4(1H,3H)-dione] | – | – | 20 | 49.9 |
| O=c1[nH]c(=O)n([C@H]2C[C@@H]3OP(=O)(OCCCc4ccccc4)OC[C@H]3O2)cc1F (stereo partly drawn) [Compound 220, 5-Fluoro-1-((4aR,6R,7aS)-2-(3-phenylpropyloxy)-2-oxidotetrahydro-4H-furo[3,2-d][1,3,2]dioxaphosphinin-6-yl)pyrimidine-2,4(1H,3H)-dione] | – | – | 122 | 944 |
| COc1ccc(C2O[C@@H]3[C@H](O2)[C@@H](C)O[C@H]3n2cc(F)c(=O)[nH]c2=O)cc1 (stereo partly drawn) [Compound 118, 5-Fluoro-1-((3aR,4R,6R,6aR)-2-(4-methoxyphenyl)-6-methyltetrahydrofuro[3,4-d][1,3]dioxol-4-yl)pyrimidine-2,4(1H,3H)-dione] | 3680 | 1220 | – | – |
| CCCCCCCCCOP1(=O)OC[C@H]2O[C@@H](n3cc(F)c(=O)[nH]c3=O)C[C@@H]2O1 (stereo partly drawn) [Compound 132, 5-Fluoro-1-((4aR,6R,7aS)-2-(nonyloxy)-2-oxidotetrahydro-4H-furo[3,2-d][1,3,2]dioxaphosphinin-6-yl)pyrimidine-2,4(1H,3H)-dione] | 59.9 | 1370 | – | – |
| C[C@H](NP(=O)(OC[C@H]1O[C@@H](n2cc(F)c(=O)[nH]c2=O)C[C@@H]1O)Oc1cccc2ccccc12)C(=O)OCc1ccccc1 (stereo partly shown) [NUC-3373, reference compound] | – | – | < 1 | < 6 |
| O=c1[nH]c(=O)n([C@H]2C[C@@H]3OP(=O)(OCc4ccc(C(F)(F)F)cc4)OC[C@H]3O2)cc1F (stereo partly drawn) [Compound 156, 5-Fluoro-1-((4aR,6R,7aS)-2-oxido-2-((4-(trifluoromethyl)benzyl)oxy)tetrahydro-4H-furo[3,2-d][1,3,2]dioxaphosphinin-6-yl)pyrimidine-2,4(1H,3H)-dione] | 3.66 | < 6 | – | – |

From US11427550B2, “5-fluorouracil compounds” (NUCORION PHARMACEUTICALS, INC., priority 2018, dated 2022)
